Data as given in patent publication US10898481B2 (priority 2018, dated 2021).

Biological target: hA2a/CHO (Homo sapiens (Human), UniProt P29274)
Assay: cAMP inhibition assay in hA2a/CHO cells, 10 μM adenosine;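 also: compounds added to cells 30 min ahead of adenosine, then a further 30 min at 37 °C with adenosine before cAMP detection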
Assay type: cell-based
Conditions: read-out: cAMP & FLIPR IC50 (nM) hA2a
Description: hA2a/CHO, hA2b/CHO, hA3/CHO and mA2a/CHO (Genscript) were plated at 5×10^3 cells/well into 384-well polystyrene plates at the day of experiment. Compounds were pre-incubated with cells for 30 min at 37° C., 5% CO2. Then 10 μM adenosine was added to the cells and incubated for 30 min at 37° C., 5% CO2. Detection reagent (CISBIO) was added and the plates were incubated for 60 min at room temperature. The signal was captured by Envision.

hA2a/CHO, sequence (P29274 whole entry): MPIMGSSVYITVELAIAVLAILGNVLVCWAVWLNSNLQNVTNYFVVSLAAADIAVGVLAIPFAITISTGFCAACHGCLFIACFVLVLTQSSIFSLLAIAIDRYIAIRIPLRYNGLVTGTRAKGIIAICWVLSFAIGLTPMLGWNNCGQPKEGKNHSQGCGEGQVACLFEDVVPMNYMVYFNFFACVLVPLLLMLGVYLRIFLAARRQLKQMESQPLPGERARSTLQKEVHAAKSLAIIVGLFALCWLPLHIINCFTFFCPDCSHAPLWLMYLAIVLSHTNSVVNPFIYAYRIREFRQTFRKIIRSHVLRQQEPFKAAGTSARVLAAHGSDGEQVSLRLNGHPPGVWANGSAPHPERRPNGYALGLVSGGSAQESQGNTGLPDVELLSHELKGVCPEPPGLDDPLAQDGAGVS

Compound | IC50
Cc1cnc2ccc(-c3nc(C(=O)NC(C)Cn4cncn4)c(N)nc3-c3ncco3)cn12 (racemic) [Example 306, rac-N-(1-(1H-1,2,4-triazol-1-yl)propan-2-yl)-3-amino-6-(3-methylimidazo [1,2-a]pyridin-6-yl)-5-(oxazol-2-yl) pyrazine-2-carboxamide] | 14 nM
COC1CCOC1CNC(=O)c1nc(-c2ccc3ncc(C)n3c2)c(-c2ncco2)nc1N (single isomer, unassigned) [Example 279, 3-amino-N-((3-methoxytetrahydrofuran-2-yl)methyl)-6-(3-methylimidazo[1,2-a]pyridin-6-yl)-5-(oxazol-2-yl)pyrazine-2-carboxamide] | 1.4 nM
COC1CCOC1CNC(=O)c1nc(-c2ccc3ncc(C)n3c2)c(-c2ncco2)nc1N (single isomer, unassigned) [Example 280, 3-amino-N-((3-methoxytetrahydrofuran-2-yl)methyl)-6-(3-methylimidazo[1,2-a]pyridin-6-yl)-5-(oxazol-2-yl)pyrazine-2-carboxamide] | 0.6 nM
Cc1cnc2ccc(-c3nc(C(=O)NCC4CCOC4)c(N)nc3-c3ccccn3)cn12 (single isomer, unassigned) [Example 304, 3-amino-6-[3-methylimidazo[1,2-a]pyridin-6-yl]-N-[[oxolan-3-yl]methyl]-5-(pyridin-2-yl)pyrazine-2-carboxamide] | 8.2 nM
Cc1cnc2ccc(-c3nc(C(=O)NCC4CCOC4)c(N)nc3-c3ccccn3)cn12 (single isomer, unassigned) [Example 305, 3-amino-6-[3-methylimidazo[1,2-a]pyridin-6-yl]-N-[[oxolan-3-yl]methyl]-5-(pyridin-2-yl)pyrazine-2-carboxamide] | 12 nM
COC1CCCC(NC(=O)c2nc(-c3ccc4ncc(C)n4c3)c(-c3ncco3)nc2N)C1 (single isomer, unassigned; isomer4) [Example 295, 3-amino-N-(3-methoxycyclohexyl)-6-(3-methylimidazo[1,2-a]pyridin-6-yl)-5-(oxazol-2-yl) pyrazine-2-carboxamide (isomer4)] | 13 nM
Cc1cnc2ccc(-c3nc(C(=O)NCC4CCCOC4)c(N)nc3-c3ncco3)cn12 (single isomer, unassigned; isomer 1) [Example 167, 3-amino-6-(3-methylimidazo[1,2-a]pyridin-6-yl)-5-(oxazol-2-yl)-N-((tetrahydro-2H-pyran-3-yl)methyl)pyrazine-2-carboxamide (isomer 1)] | 1.2 nM
Cc1cnc2ccc(-c3nc(C(=O)NCC4OCC4(C)C)c(N)nc3-c3ncco3)cn12 (single isomer, unassigned; isomer 1) [Example 288, 3-amino-N-((3,3-dimethyloxetan-2-yl)methyl)-6-(3-methylimidazo[1,2-a]pyridin-6-yl)-5-(oxazol-2-yl)pyrazine-2-carboxamide (isomer 1)] | 0.6 nM
COC1CCCC(NC(=O)c2nc(-c3ccc4ncc(C)n4c3)c(-c3ncco3)nc2N)C1 (single isomer, unassigned; isomer 1) [Example 292, 3-amino-N-(3-methoxycyclohexyl)-6-(3-methylimidazo[1,2-a]pyridin-6-yl)-5-(oxazol-2-yl)pyrazine-2-carboxamide (isomer 1)] | 0.4 nM
Cc1cnc2ccc(-c3nc(C(=O)NCC4CCCOC4)c(N)nc3-c3ncco3)cn12 (single isomer, unassigned; isomer 2) [Example 168, 3-amino-6-(3-methylimidazo[1,2-a]pyridin-6-yl)-5-(oxazol-2-yl)-N-((tetrahydro-2H-pyran-3-yl)methyl) pyrazine-2-carboxamide (isomer 2)] | 1.1 nM
Cc1cnc2ccc(-c3nc(C(=O)NCC4OCC4(C)C)c(N)nc3-c3ncco3)cn12 (single isomer, unassigned; isomer 2) [Example 289, 3-amino-N-((3,3-dimethyloxetan-2-yl)methyl)-6-(3-methylimidazo[1,2-a]pyridin-6-yl)-5-(oxazol-2-yl)pyrazine-2-carboxamide (isomer 2)] | 1.9 nM
COC1CCCC(NC(=O)c2nc(-c3ccc4ncc(C)n4c3)c(-c3ncco3)nc2N)C1 (single isomer, unassigned; isomer 2) [Example 293, 3-amino-N-(3-methoxycyclohexyl)-6-(3-methylimidazo[1,2-a]pyridin-6-yl)-5-(oxazol-2-yl)pyrazine-2-carboxamide (isomer 2)] | 0.4 nM
COC1CCCC(NC(=O)c2nc(-c3ccc4ncc(C)n4c3)c(-c3ncco3)nc2N)C1 (single isomer, unassigned; isomer 3) [Example 294, 3-amino-N-(3-methoxycyclohexyl)-6-(3-methylimidazo[1,2-a]pyridin-6-yl)-5-(oxazol-2-yl)pyrazine-2-carboxamide (isomer 3)] | 0.2 nM
Cc1cnc2ccc(-c3nc(C(=O)NCc4cccc(N5[C@@H]6CC[C@H]5CN(C)C6)n4)c(N)nc3-c3ncco3)cn12 [Cmpd. 172, 3-amino-N-[(6-[3-methyl-3,8-diazabicyclo[3.2.1]octan-8-yl]pyridin-2-yl)methyl]-6-[3-methylimidazo[1,2-a]pyridin-6-yl]-5-(1,3-oxazol-2-yl)pyrazine-2-carboxamide] | 5.1 nM
Cc1cnc2ccc(-c3nc(C(=O)NCc4cccc(N5CC6(CCN(C)C6)C5)n4)c(N)nc3-c3ncco3)cn12 [Cmpd. 175, 3-amino-N-((6-(6-methyl-2,6-diazaspiro[3.4]octan-2-yl)pyridin-2-yl)methyl)-6-(3-methylimidazo[1,2-a]pyridin-6-yl)-5-(oxazol-2-yl)pyrazine-2-carboxamide] | 0.9 nM
Cc1cnc2ccc(-c3nc(C(=O)NC[C@H]4CCCN4C)c(N)nc3-c3cccc(F)c3)cn12 [Cmpd. 231, (R)-3-amino-5-(3-fluorophenyl)-6-(3-methylimidazo[1,2-a]pyridin-6-yl)-N-((1-methylpyrrolidin-2-yl)methyl)pyrazine-2-carboxamide] | 6.2 nM
Cc1cnc2ccc(-c3nc(CNC(=O)[C@H]4CCCN4C)c(N)nc3-c3ccc(F)c(F)c3)cn12 [Cmpd. 257, (2R)—N-[[3-amino-5-(3,4-difluorophenyl)-6-[3-methylimidazo[1,2-a]pyridin-6-yl]pyrazin-2-yl]methyl]-1-methylpyrrolidine-2-carboxamide] | 1.5 nM
Cc1cnc2ccc(-c3nc(C(=O)NC[C@H]4CCCN4C)c(N)nc3-c3ccccc3)cn12 [Cmpd. 259, 3-amino-6-[3-methylimidazo[1,2-a]pyridin-6-yl]-N-[[(2R)-1-methylpyrrolidin-2-yl]methyl]-5-phenylpyrazine-2-carboxamide] | 3.7 nM
Cc1cnc2ccc(-c3nc(C(=O)NC[C@H]4CCCN4C)c(N)nc3-c3ccc(F)c(F)c3)cn12 [Cmpd. 272, 3-amino-5-(3,4-difluorophenyl)-6-[3-methylimidazo[1,2-a]pyridin-6-yl]-N-[[(2R)-1-methylpyrrolidin-2-yl]methyl]pyrazine-2-carboxamide] | 37 nM
Cc1cnc2ccc(-c3nc(C(=O)NCc4cccc(N5[C@@H]6C[C@H]5CN(C)C6)n4)c(N)nc3-c3ncco3)cn12 [Example 174, 3-amino-N-((6-(3-methyl-3,6-diazabicyclo[3.1.1]heptan-6-yl)pyridin-2-yl)methyl)-6-(3-methylimidazo[1,2-a]pyridin-6-yl)-5-(oxazol-2-yl)pyrazine-2-carboxamide] | 6.9 nM
Cc1cnc2ccc(-c3nc(C(=O)NCC(C)(C)C(=O)N(C)C)c(N)nc3-c3ncco3)cn12 [Example 281, 3-[(3-amino-6-[3-methylimidazo[1,2-a]pyridin-6-yl]-5-(1,3-oxazol-2-yl)pyrazin-2-yl)formamido]-N,N,2,2-tetramethylpropanamide] | 0.3 nM
Cc1cnc2ccc(-c3nc(C(=O)NCc4cccc(N5C[C@H]6C[C@@H]5CN6C)n4)c(N)nc3-c3ncco3)cn12 [Example 282, 3-amino-N-((6-((1R,4R)-5-methyl-2,5-diazabicyclo[2.2.1]heptan-2-yl)pyridin-2-yl)methyl)-6-(3-methylimidazo[1,2-a]pyridin-6-yl)-5-(oxazol-2-yl) pyrazine-2-carboxamide] | 4.5 nM
Cc1cnc2ccc(-c3nc(C(=O)NCc4cccc(N5C[C@@H]6C[C@H]5CN6C)n4)c(N)nc3-c3ncco3)cn12 [Example 283, 3-amino-N-((6-((lS,4S)-5-methyl-2,5-diazabicyclo[2.2.1]heptan-2-yl)pyridin-2-yl)methyl)-6-(3-methylimidazo[1,2-a]pyridin-6-yl)-5-(oxazol-2-yl)pyrazine-2-carboxamide] | 3.4 nM
Cc1cnc2ccc(-c3nc(C(=O)NCc4cccc(N5CC6(CN(C)C6)C5)n4)c(N)nc3-c3ncco3)cn12 [Example 284, 3-amino-N-[(6-[6-methyl-2,6-diazaspiro[3.3]heptan-2-yl]pyridin-2-yl)methyl]-6-[3-methylimidazo[1,2-a]pyridin-6-yl]-5-(1,3-oxazol-2-yl)pyrazine-2-carboxamide] | 0.7 nM
Cc1cnc2ccc(-c3nc(C(=O)NCc4cccc(N5CCN(C)[C@H](C)C5)n4)c(N)nc3-c3ncco3)cn12 [Example 285, 3-amino-N-([6-[(3R)-3,4-dimethylpiperazin-1-yl]pyridin-2-yl]methyl)-6-[3-methylimidazo[1,2-a]pyridin-6-yl]-5-(1,3-oxazol-2-yl)pyrazine-2-carboxamide] | 4.5 nM
Cc1cnc2ccc(-c3nc(C(=O)NCc4cccc(N5CCN(C)[C@@H](C)C5)n4)c(N)nc3-c3ncco3)cn12 [Example 286, (S)-3-amino-N-((6-(3,4-dimethylpiperazin-1-yl)pyridin-2-yl)methyl)-6-(3-methylimidazo[1,2-a]pyridin-6-yl)-5-(oxazol-2-yl)pyrazine-2-carboxamide] | 3.2 nM
Cc1cnc2ccc(-c3nc(C(=O)NCc4cccc(N5CCN(C)C[C@@H]5C)n4)c(N)nc3-c3ncco3)cn12 [Example 287-2, (S)-3-amino-N-((6-(2,4-dimethylpiperazin-1-yl)pyridin-2-yl)methyl)-6-(3-methylimidazo[1,2-a]pyridin-6-yl)-5-(oxazol-2-yl)pyrazine-2-carboxamide] | 4.4 nM
Cc1cnc2ccc(-c3nc(CNC(=O)[C@H]4CCCN4C)c(N)nc3-n3nccn3)cn12 [Example 290, (2R)—N-[(3-amino-6-[3-methylimidazo[1,2-a]pyridin-6-yl]-5-(2H-1,2,3-triazol-2-yl)pyrazin-2-yl)methyl]-1-methylpyrrolidine-2-carboxamide] | 5.8 nM
